In patent US10976310B2, “Ligand identification by co-fractionation” (MAX-PLANCK-GESELLSCHAFT ZUR FÖRDERUNG DER WISSENSCHAFTEN …, priority 2016, dated 2021) one finds Kd and ΔTm data, which are given here for one molecule.

The structures appear in SMILES notation.

Usually Kd stands for the free concentration of one partner at which half of the binding sites on the other are occupied at equilibrium, for simple one-to-one binding.

The target in one assay is T1, TIA1 (Homo sapiens, UniProt P31483).
T1 construct: purchased Origene (Herford, Germany)
T1 sequence (P31483 1-386): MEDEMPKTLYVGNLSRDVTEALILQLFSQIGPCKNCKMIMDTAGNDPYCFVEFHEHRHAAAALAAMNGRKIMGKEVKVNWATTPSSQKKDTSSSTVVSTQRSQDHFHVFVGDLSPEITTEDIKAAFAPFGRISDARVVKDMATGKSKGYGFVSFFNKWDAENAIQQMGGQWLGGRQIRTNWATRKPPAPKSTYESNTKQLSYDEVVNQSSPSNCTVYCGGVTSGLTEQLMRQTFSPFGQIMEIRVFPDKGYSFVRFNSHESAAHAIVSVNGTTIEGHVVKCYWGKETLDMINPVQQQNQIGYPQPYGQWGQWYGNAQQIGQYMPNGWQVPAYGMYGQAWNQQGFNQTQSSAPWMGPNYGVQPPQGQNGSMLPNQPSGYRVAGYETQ
In words: MST measurement of ligand binding to recombinant TIA1. Conditions: recombinant TIA1, n=3. As for the experimental part:
Expecting such a basic role of 2′,3′-cAMP to be conserved, we performed similar analysis with TIA1, the human functional homolog of Rbp47b. TIA1 was labeled and its interaction with 2′,3′-cAMP was determined using MST.
TIA1 protein was purchased from Origene (Herford, Germany). Rbp47b was cloned as a C-terminal GFP fusion (to increase protein solubility) into the E. coli expression vector pDEST14 containing His6-tag at the N-terminal of the Gateway (Karlsruhe, Germany) cassette. Rosetta cells expressing His6-Rbp47b-GFP were grown at 28° C. overnight and next day were moved to Terrific Broth medium supplied with 1% sucrose and relevant antibiotics. Cultures at OD 0.4 were induced by addition of 0.1 mM IPTG and transferred to 16° C. for overnight incubation.
MST measurements were performed using a Monolith NT.115 instrument (NanoTemper, München, Germany). Capillaries were loaded into the instrument as sets of 13-16 point ligand titrations. Proteins (Rb47b and TIA1) were labeled in phosphate buffer (PBS) using Monolith™ protein labeling kit RED-NHS (amine reactive; MO-L001) according to the manufacturers instruction. Excitation was optimized by varying the LED power to yield emission intensities above 200 AU, corresponding to 10-50 nM labeled protein. Monolith power was set to 60%. Ligands [2′,3′-cAMP (Sigma A9376)] and [3′,5′-cAMP (Sigma A6885)] were dissolved in PBS. […]

For a further assay, the target named is T2, Rbp47b-TAP protein (Arabidopsis thaliana, UniProt Q0WW84).
T2 construct: expressed in transfected cells; host or cells: Arabidopsis cell suspension culture, Agrobacterium-transformed
T2 sequence (Q0WW84 1-435): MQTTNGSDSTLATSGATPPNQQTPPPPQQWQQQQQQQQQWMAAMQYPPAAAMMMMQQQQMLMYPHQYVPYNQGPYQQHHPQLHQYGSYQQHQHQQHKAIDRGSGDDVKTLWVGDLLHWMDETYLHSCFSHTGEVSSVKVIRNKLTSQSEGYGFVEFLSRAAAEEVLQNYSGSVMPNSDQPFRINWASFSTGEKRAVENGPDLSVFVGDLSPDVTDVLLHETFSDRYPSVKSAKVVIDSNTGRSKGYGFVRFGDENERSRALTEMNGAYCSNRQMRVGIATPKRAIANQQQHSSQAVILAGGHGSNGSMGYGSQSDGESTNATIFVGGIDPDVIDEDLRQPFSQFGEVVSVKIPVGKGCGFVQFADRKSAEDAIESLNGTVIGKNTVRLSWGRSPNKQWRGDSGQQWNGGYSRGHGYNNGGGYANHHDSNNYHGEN
Kind of assay: Cellular thermal shift assay (CETSA) in native Arabidopsis lysate. It counts as binding. Conditions: read-out: change of Rbp47b melting temperature (thermal destabilization). As to the method: To this end we set out to identify the binding protein partners of 2′,3′-cAMP by applying affinity purification (AP) using agarose beads, with 2′,3′-cAMP linked via the NH2 group of the purine ring. After incubation of the beads with total soluble-protein extracts from A. thaliana cell suspension cultures (cf. Materials and Methods) sequential washings with ADP, GDP, 5′-AMP, and finally 2′,3′-cAMP were performed, and the proteins eluting in the different washings were analyzed by LC-MS/MS proteomics. Proteins eluting from the agarose beads exclusively with 2′,3′-cAMP but absent in any of the other eluents (ADP, GDP, or 5′-AMP; FIG. 10A) were defined as 2′,3′-cAMP-binding. Applying this stringent criterion only one protein remained: the polyadenylate-binding protein Rbp47b. We reasoned that the putative formation of Rbp47b-2′,3′-cAMP complexes in vivo should be reflected by largely overlapping elution profiles of the two components in a size-exclusion experiment (SEC), as was indeed the case (FIG. 10B). To obtain further and independent evidence for the formation of a complex between Rbp47b and 2′,3′-cAMP, we performed a cellular thermal shift assay (CETSA) (Franken et al. (2015) Thermal proteome profiling for unbiased identification of direct and indirect drug targets using multiplexed quantitative mass spectrometry. Nat Protoc 10: 1567-1593). CESTA is a method used in the drug research to verify ligand-receptor binding in the native cellular lysate, based on the observation that presence of the ligand changes thermal stability of the protein receptor. Herein, we adapted the protocol to be suitable for the plant material and an endogenous […] metabolite. We used Arabidopsis cells expressing a tagged version of the Rbp47b, so that Rbp47b level could be easily detected with the anti-tag antibody. […] Taken together, three independent experimental approaches (AP, SEC, and CETSA) provide evidence for the binding of 2′,3′-cAMP to Rbp47b in the native Arabidopsis lysate. […]

Consider `Nc1ncnc2c1ncn2[C@@H]1O[C@H](CO)[C@H]2OP(=O)(O)O[C@H]21` [2′,3′-cAMP], for which the Kd on TIA1 was 217 µM. At Rbp47b-TAP protein, the ΔTm at 10 µM was found to be 2.4 °C and the ΔTm at 100 µM amounted to 5.1 °C.
